Legend:
[1] = system: FXR (hFXR) (Homo sapiens); assay: cell_activity; conditions: 1 µM GW4064, HepG2
[2] = system: apo A-I expression in HepG2 cells; assay: apo A-I mRNA expression in HepG2 cells (Northern blot); type: cell-based, human
Procedure: HepG2 cells were grown in DMEM medium supplemented with 10% fetal calf serum, penicillin/streptomycin, sodium pyruvate and nonessential amino acids and incubated at 37° C in a humidified 5% CO2/95% air atmosphere. […] Total RNA was extracted as previously described (Chomczynski et al., Anal. Biochem., 1987, 162 (1): 156-9) and quantified by Northern Blot hybridization (Peters, J. Biol. Chem., 1997, 272 (43): 27307-12) using human apo A-I and 28S as probes (Peters, J. Biol. Chem., 1997, 272 (43): 27307-12).
HepG2 cells were grown in DMEM medium supplemented with 10% fetal calf serum, penicillin/streptomycin, sodium pyruvate and nonessential amino acids and incubated at 37° C. in a humidified 5% CO2/95% air atmosphere. Total RNA was extracted as previously described (Chomczynski et al., Anal. Biochem., 1987, 162 (1): 156-9) and quantified by Northern Blot hybridization (Peters, J. Biol. Chem., 1997, 272 (43): 27307-12) using human apo A-I and 28S as probes (Peters, J. Biol. Chem., 1997, 272 (43): 27307-12).
(§1) HepG2 were cotransfected as described in example 5. Cellular mRNA was obtained as described above in example 2.

human apo A-I promoter = assay: luciferase reporter under human apo A-I promoter fragments in HepG2 cells overexpressing hFXR; type: cell-based
Procedure: HepG2 cells were cotransfected by lipofection with 300 ng of pCDNA3-hFXR vector for FXR expression, 300 ng of pSG5-mRXRα vector and 1 μg of the indicated reporter vectors enabling expression of the luciferase reporter gene under the control of fragments −254/+91, −192/+91 and −40/+91 of the apo A-I promoter. […] Total DNA was adjusted to 2 μg using plasmid pBKS+. After a 3 hour transfection, cells were incubated in the culture medium with bile acids at the indicated concentrations for 36 hours.
HepG2 cells were transfected by lipofection with 300 ng of pCDNA3-hFXR vector for expression of hFXR and 1 μg of the indicated reporter vectors allowing expression of a luciferase reporter gene under the control wild type or mutated fragment −254/+91 of the human apo A-I gene promoter, under the control of the herpes simplex virus thymidine kinase promoter or under the control of three copies of site A or site C of the human apo A-I gene cloned upstream of the herpes simplex virus thymidine kinase promoter. […] The construct containing fragment −254/+91 of the apo A-I promoter in which site A is mutated was obtained by directed mutagenesis of site A, in the wild type construct, using the Quick Change Site directed mutagenesis kit (Stratagene, La Jolla, Calif., USA), oligonucleotide 5′-[…]-3′ (SEQ ID NO: 4) and the complementary oligonucleotide. The construct containing fragment −254/+91 of the apo A-I promoter in which site C is mutated was obtained by directed mutagenesis of site C, in the wild type construct, using the Quick Change Site directed mutagenesis kit (Stratagene, La Jolla, Calif., USA), oligonucleotide 5′-[…]-3′ (SEQ ID NO: 3) and the complementary oligonucleotide. The construct containing fragment −254/+91 of the apo A-I promoter in which sites A and C are mutated was obtained by directed mutagenesis of site A, in the Cmut construct, using the Quick Change Site directed mutagenesis kit (Stratagene, La Jolla, Calif., USA), oligonucleotide 5′-[…]-3′ (SEQ ID NO: 4) and the complementary oligonucleotide. The construct denoted TkpGL3 containing the herpes simplex virus thymidine kinase promoter cloned upstream of a luciferase reporter gene has been previously described (Raspé et al., J. Biol. Chem., 2001, 276 (4): 2865-2871). The C3TK construct containing three copies of site C of the human apo A-I promoter cloned upstream of the herpes simplex virus thymidine kinase promoter and the luciferase reporter gene was obtained by oriented cloning of three copies of the double-stranded oligonucleotide corresponding to the wild type site C sequence (SEQ ID NO: 1) into the SmaI site of vector TkpGL3. The A3TK construct containing three copies of site A of the human apo A-I promoter cloned upstream of the herpes simplex virus thymidine kinase promoter and the luciferase reporter gene was obtained by oriented cloning of three copies of the double-stranded oligonucleotide corresponding to the wild type site A sequence (SEQ ID NO: 2) into the SmaI site of vector TkpGL3. Total DNA was adjusted to 2 μg using plasmid pBKS+. After a 3 hour transfection, cells were incubated in the culture medium with the bile acids at the indicated concentrations for 36 hours.
as §1

[3] = system: site C of the human apo A-I promoter; assay: luciferase reporter C3TK (three copies of site C upstream of TK promoter) in HepG2 cells overexpressing hFXR; type: cell-based
Procedure: (§2) HepG2 cells were transfected by lipofection with 300 ng of pCDNA3-hFXR vector for expression of hFXR and 1 μg of the indicated reporter vectors allowing expression of a luciferase reporter gene under the control wild type or mutated fragment −254/+91 of the human apo A-I gene promoter, under the control of the herpes simplex virus thymidine kinase promoter or under the control of three copies of site A or site C of the human apo A-I gene cloned upstream of the herpes simplex virus thymidine kinase promoter. […] The construct containing fragment −254/+91 of the apo A-I promoter in which site A is mutated was obtained by directed mutagenesis of site A, in the wild type construct, using the Quick Change Site directed mutagenesis kit (Stratagene, La Jolla, Calif., USA), oligonucleotide 5′-[…]-3′ (SEQ ID NO: 4) and the complementary oligonucleotide. The construct containing fragment −254/+91 of the apo A-I promoter in which site C is mutated was obtained by directed mutagenesis of site C, in the wild type construct, using the Quick Change Site directed mutagenesis kit (Stratagene, La Jolla, Calif., USA), oligonucleotide 5′-[…]-3′ (SEQ ID NO: 3) and the complementary oligonucleotide. […]

[4] = system: site A of the human apo A-I promoter; assay: luciferase reporter A3TK (three copies of site A upstream of TK promoter) in HepG2 cells overexpressing hFXR; type: cell-based
Procedure: as §2

[5] = system: herpes simplex virus thymidine kinase promoter; assay: luciferase reporter TkpGL3 (TK promoter only) in HepG2 cells overexpressing hFXR; type: cell-based, human; conditions: overexpression of hFXR, CDCA
Procedure: as §2

[6] = system: mice transgenic for the human apo A-I gene; conditions: diet rich in TCA 0.5% m/m, one week
From the text: Effect of TCA on Plasma Concentrations of Cholesterol and Apo A-I and on Hepatic Expression of apo A-I in Mice Transgenic for the Human apo A-I Gene (FIG. 1)
Example 1 illustrates the effect of a diet rich in taurocholate on serum cholesterol and human apo A-I levels and on lipid profile and hepatic expression of human apo A-I in transgenic mice expressing the apo A-I gene in a C57BL genetic background.
Ten transgenic mice expressing the apo A-I gene in a C57BL genetic background (IFFA-CREDO, L'Arbresle, France) were genotyped by PCR and divided into two groups of five animals. The first group received a normal diet for one week while the second was given a diet rich in TCA (taurocholic acid, 0.5% m/m). Blood was collected after a 12 hour fast by retroorbital puncture under barbital anesthesia. Serum samples were collected and stored at −20° C. pending analysis. After one week of dietary treatment, animals were sacrificed and liver specimens were collected and frozen for analysis. Human apo A-I levels in serum were measured before and after the diet as previously described (Peters, J. Biol. Chem., 1997, 272 (43): 27307-12). Serum cholesterol and lipid profiles after FPLC were measured as previously described (Raspé et al., J. Lipid Res., 1999, 40 (11): 2099-2110). Total RNA was extracted from liver specimens as previously described (Chomczynski et al., Anal. Biochem., 1987, 162 (1): 156-9) and quantified by Northern Blot hybridization (Peters, 1997) using human apo A-I and 28S as probes (Peters, J. Biol. Chem., 1997, 272 (43): 27307-12).

FXR = molecular target: T1, FXR (Homo sapiens, UniProt Q96RI1); conditions: FIG. 4
T1 sequence (Q96RI1 1-472 isoform Q96RI1-2): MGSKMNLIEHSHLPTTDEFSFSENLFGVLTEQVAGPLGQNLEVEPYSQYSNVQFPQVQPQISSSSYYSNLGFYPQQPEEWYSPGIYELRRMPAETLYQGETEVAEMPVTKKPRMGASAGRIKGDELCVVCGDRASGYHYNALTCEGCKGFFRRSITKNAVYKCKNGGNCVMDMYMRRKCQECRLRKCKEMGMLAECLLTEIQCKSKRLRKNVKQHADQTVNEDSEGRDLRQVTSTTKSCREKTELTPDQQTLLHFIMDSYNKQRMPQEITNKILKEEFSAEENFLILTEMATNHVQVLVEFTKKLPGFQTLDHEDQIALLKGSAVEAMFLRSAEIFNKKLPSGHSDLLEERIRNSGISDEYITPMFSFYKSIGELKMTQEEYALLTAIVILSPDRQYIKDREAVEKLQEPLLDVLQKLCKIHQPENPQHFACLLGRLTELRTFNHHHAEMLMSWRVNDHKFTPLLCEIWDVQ

[7] = overexpression of hFXR and mRXRα, CDCA, 36 hours
[8] = overexpression of hFXR, panel A
[9] = hFXR overexpression, 1 μM GW4064, in words

Work on apo A-I promoter site A wt yielded an activity (% of control luciferase) ([1]; A3TK, three copies, activation) of 1120.

In the case of C[C@H](CCC(=O)O)[C@H]1CC[C@H]2[C@@H]3[C@H](O)C[C@@H]4C[C@H](O)CC[C@]4(C)[C@H]3CC[C@]12C [CDCA, chenodeoxycholic acid], the “apo A-I expression in HepG2 cells” value ([2]; 50 μM) is reported as “considerably reduces”, the “effect on apo A-I expression after actinomycin D preincubation” value ([2]; CDCA 50 μM, 12-h preincubation with actinomycin D (5 g/ml)) is reported as “offset” and the “apo A-I expression in HepG2 cells” value ([2]; increasing concentrations) is reported as “reduce”. For the same compound, the “activity of fragment −40/+91 (minimal promoter) of the apo A-I gene promoter” value (human apo A-I promoter; [7]) was “not”, the “activity of fragment −192/+91 of the apo A-I gene promoter” value (human apo A-I promoter; [7]) was “represses” and the “activity of fragment −254/+91 of the apo A-I gene promoter” value (human apo A-I promoter; [7]) was “represses”. The “activity of fragment −254/+91 with site A mutated (A mut construct)” value (human apo A-I promoter; overexpression of hFXR, CDCA) was “represses”, the “activity of wild type fragment −254/+91 (wt construct)” value (human apo A-I promoter; overexpression of hFXR, CDCA) was “represses” and the “activity of fragment −254/+91 with site C mutated (C mut construct)” value (human apo A-I promoter; [8]) was “transcriptional activation”. For the same compound, the “activity of fragment −254/+91 with sites A and C mutated (AC mut construct)” value (human apo A-I promoter; [8]) was “loss of response”, the “activity of construct C3TK” value ([3]; overexpression of hFXR, CDCA) was “represses” and the “activity of construct A3TK” value ([4]; overexpression of hFXR, CDCA) was “activated”. For the same compound, the “activity of construct TkpGL3” value [5] was “not affected”.

For apo A-I promoter site C wt, the activity (% of control luciferase) ([1]; C3TK, three copies, repression) was 61.8.

In the case of C[C@H](CCC(=O)NCCS(=O)(=O)O)[C@H]1CC[C@H]2[C@@H]3[C@H](O)C[C@@H]4C[C@H](O)CC[C@]4(C)[C@H]3C[C@H](O)[C@]12C [TCA, taurocholic acid], the “hepatic expression of apo A-I” value [6] is reported as “reduces”, the “plasma concentrations of apo A-I” value [6] is reported as “reduces” and the “plasma concentrations of cholesterol” value [6] is reported as “reduces”. For the same compound, the “apo A-I expression in HepG2 cells” value ([2]; increasing concentrations) was “reduce” and the FXR activation (FXR) was “activate”.

In the case of CC(C)c1onc(-c2c(Cl)cccc2Cl)c1COc1ccc(/C=C/c2cccc(C(=O)O)c2)c(Cl)c1 [GW4064], the “apo A-I expression in HepG2 cells” value ([2]; GW4064, in words) is reported as “markedly reduces”, the “activity of fragment −254/+91 of the human apo A-I promoter (construct ABC)” value (human apo A-I promoter; [9]) is reported as “represses” and the “activity of construct C3TK” value [3, 9] is reported as “represses”. For the same compound, the “activity of construct A3TK” value ([4]; hFXR overexpression, GW4064, in words) was “activated”.

apo A-I promoter -254/+91 showed an activity (% of control luciferase) ([1]; construct ABC, repression) of 56.8.

From US20040115666A1, “Method for identifying compounds modulating reverse cholesterol transport” (priority 2001, published 2004)
